From BindingDB's records for doi:10.1016/0024-3205(94)00413-m (Sanofi Recherche, 1995)
Several values for one entry are separate records, joined by “and”; a condition that tells them apart may be missing. Equal entries are not always repeated.

Experiments:
Substance-K receptor [1] = target: T1, Substance-K receptor (Rattus norvegicus, UniProt P16610)
T1 sequence (P16610 whole entry): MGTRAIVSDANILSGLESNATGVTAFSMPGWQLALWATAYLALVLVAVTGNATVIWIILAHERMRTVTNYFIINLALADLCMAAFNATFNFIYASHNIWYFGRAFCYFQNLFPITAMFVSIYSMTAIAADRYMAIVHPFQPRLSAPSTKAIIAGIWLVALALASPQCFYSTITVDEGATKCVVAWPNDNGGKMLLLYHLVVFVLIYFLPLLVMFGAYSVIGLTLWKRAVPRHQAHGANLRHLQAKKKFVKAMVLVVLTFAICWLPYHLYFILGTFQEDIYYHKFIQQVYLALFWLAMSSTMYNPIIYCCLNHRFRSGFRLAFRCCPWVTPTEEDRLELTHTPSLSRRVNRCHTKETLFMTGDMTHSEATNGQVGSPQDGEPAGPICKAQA

Substance-P receptor = Substance-P receptor (Rattus norvegicus, UniProt P14600)
Substance-P receptor, sequence (P14600 whole entry): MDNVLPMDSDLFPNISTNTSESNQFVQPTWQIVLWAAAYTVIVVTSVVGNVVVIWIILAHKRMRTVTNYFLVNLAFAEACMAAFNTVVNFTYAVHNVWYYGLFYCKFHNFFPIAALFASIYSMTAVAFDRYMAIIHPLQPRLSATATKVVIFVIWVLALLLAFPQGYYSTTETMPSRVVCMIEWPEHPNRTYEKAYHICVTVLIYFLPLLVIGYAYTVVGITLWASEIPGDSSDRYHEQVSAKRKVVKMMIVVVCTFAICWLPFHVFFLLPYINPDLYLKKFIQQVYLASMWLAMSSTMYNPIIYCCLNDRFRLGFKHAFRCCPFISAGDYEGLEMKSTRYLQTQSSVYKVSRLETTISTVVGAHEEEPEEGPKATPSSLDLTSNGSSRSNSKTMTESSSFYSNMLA

Substance-K receptor [2] = target: T2, Substance-K receptor (Cavia porcellus, UniProt Q64077)
T2 sequence (Q64077 whole entry): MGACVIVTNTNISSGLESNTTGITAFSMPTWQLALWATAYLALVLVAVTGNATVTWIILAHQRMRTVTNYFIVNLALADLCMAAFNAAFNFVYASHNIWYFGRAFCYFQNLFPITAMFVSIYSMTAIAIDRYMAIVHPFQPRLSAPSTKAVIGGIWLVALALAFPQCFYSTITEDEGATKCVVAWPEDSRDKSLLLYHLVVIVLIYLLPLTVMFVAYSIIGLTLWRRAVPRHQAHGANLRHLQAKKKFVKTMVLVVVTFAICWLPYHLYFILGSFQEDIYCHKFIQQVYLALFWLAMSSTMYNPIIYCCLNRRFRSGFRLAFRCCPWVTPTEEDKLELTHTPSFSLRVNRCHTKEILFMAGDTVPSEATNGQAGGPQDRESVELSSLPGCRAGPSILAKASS

Substance-K receptor [3] = target: T3, Substance-K receptor (Mesocricetus auratus, UniProt P51144)
T3 sequence (P51144 whole entry): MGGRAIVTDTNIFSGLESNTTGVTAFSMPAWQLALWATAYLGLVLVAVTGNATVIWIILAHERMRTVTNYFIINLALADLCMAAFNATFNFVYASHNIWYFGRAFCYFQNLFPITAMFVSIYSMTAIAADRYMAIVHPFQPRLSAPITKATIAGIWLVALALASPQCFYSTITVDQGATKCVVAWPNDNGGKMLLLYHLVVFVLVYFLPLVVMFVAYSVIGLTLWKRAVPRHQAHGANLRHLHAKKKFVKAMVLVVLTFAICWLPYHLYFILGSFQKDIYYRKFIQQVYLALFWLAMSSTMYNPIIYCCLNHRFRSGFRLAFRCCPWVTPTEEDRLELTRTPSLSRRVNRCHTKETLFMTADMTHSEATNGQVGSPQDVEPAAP

- Ki (Substance-K receptor [1]): 100 nM and 248 nM
- Ki (Substance-P receptor): 2000 nM
- Ki (Substance-K receptor [2]): 73 nM and 350 nM
- Ki (Substance-K receptor [3]): 2000 nM
SMILES: CC(=O)N(C)C1(c2ccccc2)CCN(CCCC2(c3ccc(Cl)c(Cl)c3)CCCN(C(=O)c3ccccc3)C2)CC1 (centres undefined) [SR 142806]
